Experimental findings from ChEMBL document CHEMBL4251547, “The discovery of a pan-genotypic, primer grip inhibitor of HCV NS5B polymerase” (Medchemcomm, 2017) are described below.

The nature of data set [1]: Cmax in rat at 2 mg/kg, iv. The conditions noted are these: in vivo. Also on record: dose 2 mg/kg, route intravenous. The class given is ADME, organism-based.
Data set [2] is described as follows: Cmax in rat at 6 mg/kg, po. The data set is classed as ADME, organism-based. More on the design: dose 6 mg/kg, route oral. The conditions noted are these: in vivo.
A short description of data set [3]: Drug uptake in rat liver at 6 mg/kg, po after 24 hrs. The data set is classed as ADME, organism-based. The conditions noted are these: read-out: Drug uptake.
Data set [4] in a line: Plasma concentration in rat at 6 mg/kg, po after 24 hrs. The class given is ADME, organism-based.
Data set [5] in a line: AUC in rat at 6 mg/kg, po. To be noted: in vivo. The data set is classed as ADME, organism-based.
Data set [6] can be described thus: (§1) Oral bioavailability in rat at 6 mg/kg. The conditions noted are these: in vivo. The class given is ADME, organism-based.
The nature of data set [7]: Drug uptake in rat liver at 6 mg/kg, po after 48 hrs. The class given is ADME, organism-based. To be noted: read-out: Drug uptake.
Another data set has as its system Rattus norvegicus. The description is as §1. The class given is ADME, organism-based. The conditions noted are these: in vivo.
The nature of data set [8]: Volume of distribution at steady state in rat at 2 mg/kg, iv or 6 mg/kg, po. To be noted: in vivo, read-out: Vdss. The data set is classed as ADME, organism-based.
The nature of data set [9]: Volume of distribution at steady state in dog at 1 mg/kg, iv or 3 mg/kg, po. The data set is classed as ADME, organism-based, Canis lupus familiaris. The conditions noted are these: in vivo, read-out: Vdss.
The subject of data set [10] is Canis familiaris. In words: AUC in dog at 3 mg/kg, po. The class given is ADME, organism-based, Canis lupus familiaris. To be noted: in vivo.
For data set [11], the system named is Canis familiaris. In words: Oral bioavailability in dog at 3 mg/kg. The class given is ADME, organism-based, Canis lupus familiaris. The conditions noted are these: in vivo.
The nature of data set [12]: Volume of distribution at steady state in cynomolgus monkey at 1 mg/kg, iv or 3 mg/kg, po. The class given is ADME, organism-based, Macaca fascicularis. The conditions noted are these: in vivo, read-out: Vdss.
The nature of data set [13]: AUC in cynomolgus monkey at 3 mg/kg, po. The data set is classed as ADME, organism-based, Macaca fascicularis. To be noted: in vivo.
A short description of data set [14]: Oral bioavailability in cynomolgus monkey at 3 mg/kg. The data set is classed as ADME, organism-based, Macaca fascicularis. The conditions noted are these: in vivo.

Take `CCNc1nc2oc(-c3ccc(F)cc3)c(C(=O)NC)c2cc1-c1cccc(C(=O)NC(C)(C)C)c1`: the Cmax in [1] was determined as 1700 nM; in data set [2], 600 nM. Besides, the concentration at 24 h in data set [3] was determined as 1600 nM; in data set [4] it was 560 nM. Moreover, in data set [5], the AUC turned out to be 18 µM·h. The bioavailability in data set [6] worked out at 64%.

Regarding `CNC(=O)c1c(-c2ccc(F)cc2)oc2nc(CCC(F)(F)F)c(-c3cccc(C(=O)NC45CC(C4)C5)c3)cc12`, the values for the Cmax in data set [1] and in [2] were 3200 nM and 900 nM, respectively. Also, the values for the concentration at 24 h in [3] and in data set [4] were 900 nM and 160 nM, respectively. In data set [5], the AUC came to 10 µM·h. This compound had a bioavailability in data set [6] of 44%. For the same compound, the concentration at 48 h in data set [7] came out at 820 nM.

With `CNC(=O)c1c(-c2ccc(F)cc2)oc2nc(NCC(F)(F)F)c(-c3cccc(C(=O)NC(C)(C)c4ncon4)c3)cc12`, the highest concentration (Cmax) worked out at 2500 nM in [1] and 600 nM in [2]. For the same compound, the concentration at 24 h in data set [4] amounted to 39 nM. This compound registered a F in the data set with Rattus norvegicus of 31%.

Take `CNC(=O)c1c(-c2ccc(F)cc2)oc2nc(CCC(F)(F)F)c(-c3cccc(C(=O)NC(C)(C)c4ncon4)c3)cc12`: the figures for the Cmax in data set [1] and in data set [2] were 1700 nM and 1100 nM, respectively. This compound also had a concentration at 24 h in data set [4] of 150 nM. For the same compound, the AUC is 0.15 to 13 µM·h in data set [5], 25 µM·h in the data set with Canis familiaris [10] and 8.3 µM·h in data set [13]. The bioavailability was determined as 58% in [6] and 61% in [14]. Besides, the Vd in data set [8] was found to be 5.6 L/kg; in data set [9], 3.3 L/kg; in [12] it was 2.8 L/kg. For the same compound, the F in the data set with Canis familiaris [11] amounted to 85%.

What is called Cmax is the maximum level reached in the sampled fluid or tissue. As a reminder, the AUC is concentration integrated over time. One may read the bioavailability as the share of a dose that reaches the circulation, judged against a reference dose that is usually intravenous.
